From patent publication US12162872B2, “Cycloalkylurea derivative” (Sumitomo Pharma Co., Ltd., priority 2019, dated 2024)

What follows are compounds tested against T1, Human orexin receptor type 2 (Homo sapiens, UniProt O43614) (assay: Test 1: Evaluation of agonist activity for orexin receptor type 2 (aequorin luminescence, intracellular calcium mobilization in CHO cells)). Conditions: relative percentage of luminescence for the luminescence (100%) of Orexin A (100 pM); CHO cells transiently expressing human orexin receptor type 2 and apoaequorin; Orexin A Lot. 641114.
T1 construct: expressed in transfected cells; host or cells: CHO cells (transient expression)
T1 sequence (O43614 1-444): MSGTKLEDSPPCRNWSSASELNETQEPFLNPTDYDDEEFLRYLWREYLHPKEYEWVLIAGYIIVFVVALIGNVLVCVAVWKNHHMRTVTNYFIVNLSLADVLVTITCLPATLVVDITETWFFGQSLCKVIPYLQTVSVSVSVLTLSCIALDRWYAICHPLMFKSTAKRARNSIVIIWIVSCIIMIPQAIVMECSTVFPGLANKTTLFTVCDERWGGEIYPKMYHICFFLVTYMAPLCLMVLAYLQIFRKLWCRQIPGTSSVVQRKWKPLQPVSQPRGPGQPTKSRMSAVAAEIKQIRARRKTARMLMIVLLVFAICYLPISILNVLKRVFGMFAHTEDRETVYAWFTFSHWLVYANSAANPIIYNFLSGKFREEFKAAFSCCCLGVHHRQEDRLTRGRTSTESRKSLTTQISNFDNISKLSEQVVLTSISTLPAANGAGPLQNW
Type: cell-based
Outline: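 CHO cells transiently expressing human OX2 receptor and apoaequorin, seeded 16-22 h, loaded with 1 μM coelenterazine hcp for 2 h at room temperature. Compound added in Hanks/20 mM HEPES/0.1% BSA, 0.1% DMSO final, and calcium luminescence measured. Activity expressed as percent of the 100 pM Orexin A response.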

SMILES | agonist activity (%)
CC(C)N1CC[C@H](O[C@H]2CCCC(F)(F)[C@@H]2NC(=O)N2CCC(C)(c3noc([C@@H]4C[C@@H]4F)n3)CC2)C1 [Example 72, N-[(1R,6S)-2,2-difluoro-6-{[(3S)-1-(propan-2-yl)pyrrolidin-3-yl]oxy}cyclohexyl]-4-{5-[(1S,2S)-2-fluorocyclopropyl]-1,2,4-oxadiazol-3-yl}-4-methylpiperidine-1-carboxamide] | 146
CC(C)N1CC[C@@H](O[C@H]2CCCC(F)(F)[C@@H]2NC(=O)N2CCC(C)(c3noc([C@@H]4C[C@@H]4F)n3)CC2)C1 [Example 73, N-[(1R,6S)-2,2-difluoro-6-{[(3R)-1-(propan-2-yl)pyrrolidin-3-yl]oxy}cyclohexyl]-4-{5-[(1S,2S)-2-fluorocyclopropyl]-1,2,4-oxadiazol-3-yl}-4-methylpiperidine-1-carboxamide] | 185
CC(C)N1CC[C@H](O[C@H]2CCCC(F)(F)[C@@H]2NC(=O)N2CCC(C)(c3noc([C@@H]4C[C@@H]4C)n3)CC2)C1 [Example 74, N-[(1R,6S)-2,2-difluoro-6-{[(3S)-1-(propan-2-yl)pyrrolidin-3-yl]oxy}cyclohexyl]-4-methyl-4-(5-[(1R,2S)-2-methylcyclopropyl]-1,2,4-oxadiazol-3-yl)piperidine-1-carboxamide] | 174

Results, then the compound that gave them:

agonist activity (%) | SMILES
141 | CC(C)N1C[C@H](O[C@H]2CCCC(F)(F)[C@@H]2NC(=O)N2CCC(C)(c3noc(C4CC4)n3)CC2)[C@@H](F)C1 [Example 75, 4-(5-cyclopropyl-1,2,4-oxadiazol-3-yl)-N-[(1R,6S)-2,2-difluoro-6-{[(3S,4S)-4-fluoro-1-(propan-2-yl)pyrrolidin-3-yl]oxy}cyclohexyl]-4-methylpiperidine-1-carboxamide]
145 | CC(C)N1C[C@@H](O[C@H]2CCCC(F)(F)[C@@H]2NC(=O)N2CCC(C)(c3noc(C4CC4)n3)CC2)C(F)(F)C1 [Example 76, 4-(5-cyclopropyl-1,2,4-oxadiazol-3-yl)-N-[(1R,6S)-6-{[(3R)-4,4-difluoro-1-(propan-2-yl)pyrrolidin-3-yl]oxy}-2,2-difluorocyclohexyl]-4-methylpiperidine-1-carboxamide]
178 | CC(C)N1CCN([C@H]2CCCC(F)(F)[C@@H]2NC(=S)N2CCC(C)(c3noc(C4CC4)n3)CC2)CC1 [Example 80, 4-(5-cyclopropyl-1,2,4-oxadiazol-3-yl)-N-{(1R,6S)-2,2-difluoro-6-[4-(propan-2-yl)piperazin-1-yl]cyclohexyl}-4-methylpiperidine-1-carbothioamide]
